# Where a name gives a salt, the structure may show the parent alone.
row,Structure (SMILES),melting point
1,"Nc1nc(-c2ccco2)c2nnn(Cc3csc(-c4ccccc4)n3)c2n1 [Example 108, 7-(2-furyl)-3-(2-phenylthiazol-4-ylmethyl)-3H-[1,2,3]triazolo[4,5-d]pyrimidine-5-amine]",215 to 215.3 °C
2,"Nc1nc(-c2ccco2)c2nnn(Cc3cccc(Cl)c3)c2n1 [Example 27, 3-(3-chlorobenzyl)-7-(2-furyl)-3H-[1,2,3]triazolo[4,5-d]pyrimidine-5-amine]",209.9 to 210.1 °C
3,"Nc1nc(-c2ccco2)c2nnn(Cc3cccs3)c2n1 [Example 33, 7-(2-furyl)-3-(2-thienylmethyl)-3H-[1,2,3]triazolo[4,5-d]pyrimidine-5-amine]",204.1 to 204.2 °C
4,"Nc1nc(-c2ccco2)c2nnn(Cc3ccc4c(c3)CCO4)c2n1 [Example 166, 3-(2,3-dihydrobenzofuran-5-ylmethyl)-7-(2-furyl)-3H-[1,2,3]triazolo[4,5-d]pyrimidine-5-amine]",210.3 to 211.2 °C
5,"Cc1c(Cn2nnc3c(-c4ccco4)nc(N)nc32)cccc1[N+](=O)[O-] [Example 88, 7-(2-furyl)-3-(2-methyl-3-nitrobenzyl)-3H-[1,2,3]triazolo[4,5-d]pyrimidine-5-amine]",258.8 to 259 °C
6,"CCc1cccc(Cn2nnc3c(-c4ccco4)nc(N)nc32)n1 [Example 135, 3-(6-ethyl-2-pyridylmethyl)-7-(2-furyl)-3H-[1,2,3]triazolo[4,5-d]pyrimidine-5-amine]",208.6 to 208.8 °C
7,"Nc1nc(-c2ccco2)c2nnn(Cc3ccc(Cl)cc3[N+](=O)[O-])c2n1 [Example 119, 3-(4-chloro-2-nitrobenzyl)-7-(2-furyl)-3H-[1,2,3]triazolo[4,5-d]pyrimidine-5-amine]",> 230 °C
8,"Cc1ccc(-c2nc(N)nc3c2nnn3Cc2ccc(N)c(C)c2)o1 [Example 124, 3-(4-amino-3-methylbenzyl)-7-(5-methyl-2-furyl)-3H-[1,2,3]triazolo[4,5-d]pyrimidine-5-amine]",215.7 to 216.7 °C
9,"COc1ccnc(Cn2nnc3c(-c4ccco4)nc(N)nc32)c1 [Example 63, 7-(2-furyl)-3-(4-methoxy-2-pyridylmethyl)-3H-[1,2,3]triazolo[4,5-d]pyrimidine-5-amine]",201.1 to 201.2 °C
10,"CC(C)(C)OC(=O)NCc1ccc(Cn2nnc3c(-c4ccco4)nc(N)nc32)cc1 [Example 140, tert-butyl N-(4-(5-amino-7-(2-furyl)-3H-[1,2,3]triazolo[4,5-d]pyrimidine-3-ylmethyl)benzyl)carbamate]",184 to 185.2 °C
11,"Nc1cccc(Cn2nnc3c(-c4nccs4)nc(N)nc32)c1 [Example 83, 3-(3-aminobenzyl)-7-(2-thiazolyl)-3H-[1,2,3]triazolo[4,5-d]pyrimidine-5-amine]",252.8 to 253.3 °C
12,"CC(C)(C)OC(=O)n1ccc2ccc(Cn3nnc4c(-c5ccco5)nc(N)nc43)cc21 [Example 146, tert-butyl 6-(5-amino-7-(2-furyl)-3H-[1,2,3]triazolo[4,5-d]pyrimidine-3-ylmethyl)indole-1-carboxylate]",180 to 180.5 °C
13,"Nc1nc(-c2ccco2)c2nnn(CC(=O)O)c2n1 [Example 26, (5-Amino-7-(2-furyl)-3H-[1,2,3]triazolo[4,5-d]pyrimidin-3-yl)acetic acid]",291 to 291.1 °C
14,"Nc1cccc(Cn2nnc3c(-c4ccn[nH]4)nc(N)nc32)c1 [Example 175, 3-(3-aminobenzyl)-7-(1H-pyrazol-3-yl)-3H-[1,2,3]triazolo[4,5-d]pyrimidine-5-amine]",279.3 to 281.3 °C
15,"CN(C)c1cccc(Cn2nnc3c(-c4ccco4)nc(N)nc32)c1 [Example 162, 3-(3-(N,N-dimethylamino)benzyl)-7-(2-furyl)-3H-[1,2,3]triazolo[4,5-d]pyrimidine-5-amine]",195.1 to 195.2 °C
16,"CS(=O)(=O)Cc1cccc(Cn2nnc3c(-c4ccco4)nc(N)nc32)n1 [Example 238, 7-(2-furyl)-3-(6-methylsulphonylmethyl-2-pyridylmethyl)-3H-[1,2,3]triazolo[4,5-d]pyrimidine-5-amine]",238.2 to 238.6 °C
17,"Cc1ccc(-c2nc(N)nc3c2nnn3Cc2ccc([N+](=O)[O-])cc2)o1 [Example 268, 7-(5-methyl-2-furyl)-3-(4-nitrobenzyl)-3H-[1,2,3]triazolo[4,5-d]pyrimidine-5-amine]",248.1 to 249 °C
18,"Nc1nc(-c2ccco2)c2nnn(CC(=O)Nc3ccccn3)c2n1 [Example 52, (5-amino-7-(2-furyl)-3H-[1,2,3]triazolo[4,5-d]pyrimidin-3-yl)-N-(2-pyridyl)acetamide]",263.8 to 264 °C
19,"Nc1nc(-c2ccco2)c2nnn(Cc3ccc(Cl)c([N+](=O)[O-])c3)c2n1 [Example 110, 3-(4-chloro-3-nitrobenzyl)-7-(2-furyl)-3H-[1,2,3]triazolo[4,5-d]pyrimidine-5-amine]",247.4 to 247.5 °C
20,"Cc1ccc(-c2nc(N)nc3c2nnn3Cc2cccc(Cl)c2)o1 [Example 62, 3-(3-chlorobenzyl)-7-(5-methyl-2-furyl)-3H-[1,2,3]triazolo[4,5-d]pyrimidine-5-amine]",210.4 to 210.5 °C

row,Structure (SMILES),melting point
1,"Nc1nc(-c2ccco2)c2nnn(Cc3cccc4[nH]ccc34)c2n1 [Example 139, 7-(2-furyl)-3-(4-indolylmethyl)-3H-[1,2,3]triazolo[4,5-d]pyrimidine-5-amine]",192.3 to 193.5 °C
2,"Cc1ccc(-c2nc(N)nc3c2nnn3Cc2ccc([N+](=O)[O-])c(C)c2)o1 [Example 123, 7-(5-methyl-2-furyl)-3-(3-methyl-4-nitrobenzyl)-3H-[1,2,3]triazolo[4,5-d]pyrimidine-5-amine]",214.6 to 216.2 °C
3,"Cc1nc(-c2nc(N)nc3c2nnn3Cc2cccc(N)c2)sc1C [Example 240, 3-(3-aminobenzyl)-7-(4,5-dimethyl-2-thiazolyl)-3H-[1,2,3]triazolo[4,5-d]pyrimidine-5-amine]",254.3 to 254.5 °C
4,"Nc1nc(-c2ccco2)c2nnn(Cc3cccc(CBr)n3)c2n1 [Example 218, 3-(6-bromomethyl-2-pyridylmethyl)-7-(2-furyl)-3H-[1,2,3]triazolo[4,5-d]pyrimidine-5-amine]",196 to 196.1 °C
5,"Cc1ccc(-c2nc(N)nc3c2nnn3Cc2cccc(-c3ccccc3)n2)o1 [Example 82, 7-(5-methyl-2-furyl)-3-(6-phenyl-2-pyridylmethyl)-3H-[1,2,3]triazolo[4,5-d]pyrimidine-5-amine]",205 to 205.3 °C
6,"Nc1nc(-c2ccco2)c2nnn(Cc3ccc4[nH]ccc4c3)c2n1 [Example 153, 7-(2-furyl)-3-(5-indolylmethyl)-3H-[1,2,3]triazolo[4,5-d]pyrimidine-5-amine]",226.8 to 227.4 °C
7,"CC(C)c1cc(Cn2nnc3c(-c4ccco4)nc(N)nc32)ccc1[N+](=O)[O-] [Example 187, 7-(2-furyl)-3-(3-isopropyl-4-nitrobenzyl)-3H-[1,2,3]triazolo[4,5-d]pyrimidine-5-amine]",191.7 to 191.9 °C
8,"CC(C)(C)OC(=O)Nc1ccc(Cn2nnc3c(-c4ccco4)nc(N)nc32)cc1F [Example 143, tert-butyl N-(4-(5-amino-7-(2-furyl)-3H-[1,2,3]triazolo[4,5-d]pyrimidine-3-ylmethyl)-2-fluorophenyl)carbamate]",167 to 167.3 °C
9,"COc1ccccc1Cn1nnc2c(-c3ccco3)nc(N)nc21 [Example 77, 7-(2-furyl)-3-(2-methoxybenzyl)-3H-[1,2,3]triazolo[4,5-d]pyrimidine-5-amine]",212.1 to 214.3 °C
10,"CNCc1cccc(Cn2nnc3c(-c4ccco4)nc(N)nc32)n1 (as salt: hydrochloride) [Example 226, 7-(2-Furyl)-3-(6-(N-methylamino)methyl-2-pyridylmethyl)-3H-[1,2,3]triazolo[4,5-d]pyrimidine-5-amine]",221.4 to 221.5 °C
11,"CC(=O)Nc1ccc(Cn2nnc3c(-c4ccco4)nc(N)nc32)cc1 [Example 193, N-(4-(5-amino-7-(2-furyl)-3H-[1,2,3]triazolo[4,5-d]pyrimidin-3-ylmethyl)phenyl)acetamide]",253.6 to 254 °C
12,"Cc1ccc(-c2nc(N)nc3c2nnn3Cc2cccc(Cl)n2)o1 [Example 81, 3-(6-chloro-2-pyridylmethyl)-7-(5-methyl-2-furyl)-3H-[1,2,3]triazolo[4,5-d]pyrimidine-5-amine]",229.3 to 229.4 °C
13,"Cc1cccc(Cn2nnc3c(-c4ccc(C)o4)nc(N)nc32)n1 [Example 59, 7-(5-methyl-2-furyl)-3-(6-methyl-2-pyridylmethyl)-3H-[1,2,3]triazolo[4,5-d]pyrimidine-5-amine]",187.9 to 188.7 °C
14,"Nc1cccc(Cn2nnc3c(-c4ccc[nH]4)nc(N)nc32)c1 [Example 191, 3-(3-aminobenzyl)-7-(1H-pyrrol-2-yl)-3H-[1,2,3]triazolo[4,5-d]pyrimidine-5-amine]",186.1 to 189.1 °C
15,"Nc1nc(-c2ccco2)c2nnn(Cc3ccsc3)c2n1 [Example 179, 7-(2-furyl)-3-(3-thienylmethyl)-3H-[1,2,3]triazolo[4,5-d]pyrimidine-5-amine]",215.8 to 216.9 °C
16,"Nc1nc(-c2ccco2)c2nnn(Cc3ccc4[nH]ncc4c3)c2n1 [Example 200, 7-(2-furyl)-3-(5-indazolylmethyl)-3H-[1,2,3]triazolo[4,5-d]pyrimidine-5-amine]",> 300 °C (dec.)
17,"NCc1ccc(Cn2nnc3c(-c4ccco4)nc(N)nc32)cc1 [Example 144, 3-(4-aminomethylbenzyl)-7-(2-furyl)-3H-[1,2,3]triazolo[4,5-d]pyrimidine-5-amine]",> 300 °C (dec.)
18,Nc1nc(-c2ccco2)c2nnn(Cc3cc([N+](=O)[O-])cc([N+](=O)[O-])c3)c2n1,264.5 to 264.8 °C
19,"Cc1cccc(C(=O)C(C)n2nnc3c(-c4ccco4)nc(N)nc32)n1 (stereo not shown) [Example 190, 2-(5-amino-7-(2-furyl)-3H-[1,2,3]triazolo[4,5-d]pyrimidin-3-yl)-1-(6-methyl-2-pyridyl)propanone]",290.2 to 290.3 °C
20,"CC(C)CC(=O)NCc1cccc(Cn2nnc3c(-c4ccco4)nc(N)nc32)c1 [Example 85, N-(3-(5-amino-7-(2-furyl)-3H-[1,2,3]triazolo[4,5-d]pyrimidin-3-ylmethyl)benzyl)-3-methylbutanamide]",215.9 to 217.5 °C

# Source: patent US7589097B2, “Triazol[4,5-d] pyramidine derivatives and their use as purinergic receptor antagonists” (Vernalis Research Limited, priority 2001, dated 2009)
